Conditions: Liquid; for mass density: 298.15 K, 101.33 kPa, Vibrating tube method; for vapor or sublimation pressure: Ebulliometric method (Recirculating still)

CC1=CCC2C(C1)C2(C)C (centres undefined) [3,7,7-trimethylbicyclo[4.1.0]hept-3-ene]
Conditions	mass density [kg/m3]	vapor or sublimation pressure [kPa]
–	863.8	–
356.07 K	–	5.32
378.03 K	–	14.5
388.7 K	–	20.46
391.9 K	–	22.59
396.66 K	–	26.61
405.49 K	–	34.54
412.42 K	–	42.81
416.18 K	–	47.76
424.04 K	–	59.53
426.24 K	–	63.19
430.64 K	–	70.97
433.68 K	–	76.91
436.32 K	–	82.05
439.47 K	–	89.96
442.61 K	–	96.43
444.44 K	–	101.33

Cc1ccc(C(C)C)cc1 [1-(1-methylethyl)-4-methylbenzene]
Conditions	mass density [kg/m3]	vapor or sublimation pressure [kPa]
–	853.2	–
450.28 K	–	101.33

C=C1CC/C=C(\C)CC[C@@H]2[C@@H]1CC2(C)C
Conditions	mass density [kg/m3]	vapor or sublimation pressure [kPa]
–	896.8	–
370.33 K	–	0.51
380.5 K	–	0.84
395.45 K	–	1.63
420.02 K	–	4.31
435.58 K	–	7.51
454.18 K	–	13.85
464.9 K	–	19.18
474.02 K	–	24.96
480.05 K	–	29.55
491.45 K	–	40.33
502.53 K	–	53.62
512.49 K	–	68.83
522.97 K	–	88.4
528.78 K	–	101.33

From the NIST ThermoML archive (doi:10.1016/j.jct.2018.08.015)
